Measured values from patent US20130253179A1, “Functionalization Processes and Reactants Used in Such Processes Using an Isatoic Anhydride or a Derivative Thereof, Biological Molecules Thus Treated and Kits” (priority 2010, published 2013).

Assay: Solubility in water

With CCN1/C(=C\C=C\C2=[N+](CCCCCC(=O)Nc3ccc4c(c3)c(=O)oc(=O)n4C)c3ccc(S(=O)(=O)[O-])cc3C2(C)C)C(C)(C)c2cc(S(=O)(=O)[O-])ccc21.[K+] [Cy3 IA Me 13, 1-methyl 5-Cy3-isatoic anhydride] as the molecule, how does the solubility read?
Its solubility is greater than 100 mM.
